From ChEMBL document CHEMBL1201862, “PubChem BioAssay data set” (2004)
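Grown in 96-well plates, cells were treated for 48 hours with each compound at five concentrations. Insufficient inhibition: endpoint recorded as highest concentration tested. Abbreviation: GI50, concentration required for 50% inhibition of growth.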 The source made the active and inactive calls. Cut-off read from the data, not from the text of the source: active = GI50 up to about 1.1 µM and inactive = higher.

How the values were obtained:
Experiment in all cases: growth of human tumour cells (NCI), 48 h
786-0 = tested on: 786-0
A498 = tested on: A498
ACHN = tested on: ACHN
BT-549 = tested on: BT-549
CAKI-1 = tested on: CAKI-1
CCRF-CEM = tested on: CCRF-CEM
COLO 205 = tested on: COLO 205
DU-145 = tested on: DU-145
EKVX = tested on: EKVX
HCC 2998 = tested on: HCC 2998
HCT-116 = tested on: HCT-116
HCT-15 = tested on: HCT-15
HL-60 = tested on: HL-60
HOP-62 = tested on: HOP-62
HOP-92 = tested on: HOP-92
Hs-578T = tested on: Hs-578T
IGROV-1 = tested on: IGROV-1
K562 = tested on: K562
KM12 = tested on: KM12
LOX IMVI = tested on: LOX IMVI
M14 = tested on: M14
MCF7 = tested on: MCF7
MDA-MB-231 = tested on: MDA-MB-231
MDA-MB-435 = tested on: MDA-MB-435
MDA-N = tested on: MDA-N
MOLT-4 = tested on: MOLT-4
NCI-H226 = tested on: NCI-H226
NCI-H23 = tested on: NCI-H23
NCI-H460 = tested on: NCI-H460
NCI-H522 = tested on: NCI-H522
NCI/ADR-RES = tested on: NCI/ADR-RES
OVCAR-3 = tested on: OVCAR-3
OVCAR-4 = tested on: OVCAR-4
OVCAR-5 = tested on: OVCAR-5
OVCAR-8 = tested on: OVCAR-8
PC-3 = tested on: PC-3
RPMI-8226 = tested on: RPMI-8226
RXF 393 = tested on: RXF 393
SF-268 = tested on: SF-268
SF-295 = tested on: SF-295
SF-539 = tested on: SF-539
SK-MEL-2 = tested on: SK-MEL-2
SK-MEL-5 = tested on: SK-MEL-5
SK-OV-3 = tested on: SK-OV-3
SN12C = tested on: SN12C
SNB-19 = tested on: SNB-19
SNB-75 = tested on: SNB-75
SR = tested on: SR
SW-620 = tested on: SW-620
T47D = tested on: T47D
TK-10 = tested on: TK-10
U-251 = tested on: U-251
UACC-257 = tested on: UACC-257
UACC-62 = tested on: UACC-62
UO-31 = tested on: UO-31
HT-29 = tested on: HT-29
Malme-3M = tested on: Malme-3M
SK-MEL-28 = tested on: SK-MEL-28

CC12CCC([C@H](C(O)C3CCCCC3)C1=O)C2(C)C (stereo partly specified)
GI50 (786-0): > 100 µM (inactive) | GI50 (A498): > 100 µM (inactive) | GI50 (ACHN): > 100 µM (inactive) | GI50 (BT-549): > 100 µM (inactive) | GI50 (CAKI-1): > 100 µM (inactive) | GI50 (CCRF-CEM): 31.6 µM (inactive) | GI50 (COLO 205): > 100 µM (inactive) | GI50 (DU-145): > 100 µM (inactive) | GI50 (EKVX): > 100 µM (inactive) | GI50 (HCC 2998): > 100 µM (inactive) | GI50 (HCT-116): > 100 µM (inactive) | GI50 (HCT-15): > 100 µM | GI50 (HL-60): 13.9 µM (inactive) | GI50 (HOP-62): > 100 µM (inactive) | GI50 (HOP-92): > 100 µM (inactive) | GI50 (Hs-578T): > 100 µM (inactive) | GI50 (IGROV-1): > 100 µM (inactive) | GI50 (K562): 63 µM (inactive) | GI50 (KM12): > 100 µM (inactive) | GI50 (LOX IMVI): > 100 µM (inactive) | GI50 (M14): > 100 µM (inactive) | GI50 (MCF7): > 100 µM (inactive) | GI50 (MDA-MB-231): > 100 µM (inactive) | GI50 (MDA-MB-435): > 100 µM (inactive) | GI50 (MDA-N): > 100 µM (inactive) | GI50 (MOLT-4): 44.3 µM (inactive) | GI50 (NCI-H226): > 100 µM (inactive) | GI50 (NCI-H23): > 100 µM (inactive) | GI50 (NCI-H460): > 100 µM (inactive) | GI50 (NCI-H522): 65.8 µM (inactive) | GI50 (NCI/ADR-RES): > 100 µM (inactive) | GI50 (OVCAR-3): > 100 µM (inactive) | GI50 (OVCAR-4): > 100 µM (inactive) | GI50 (OVCAR-5): > 100 µM (inactive) | GI50 (OVCAR-8): > 100 µM (inactive) | GI50 (PC-3): > 100 µM (inactive) | GI50 (RPMI-8226): 49.4 µM (inactive) | GI50 (RXF 393): 75.2 µM (inactive) | GI50 (SF-268): > 100 µM (inactive) | GI50 (SF-295): > 100 µM (inactive) | GI50 (SF-539): > 100 µM (inactive) | GI50 (SK-MEL-2): > 100 µM (inactive) | GI50 (SK-MEL-5): 82.2 µM (inactive) | GI50 (SK-OV-3): > 100 µM (inactive) | GI50 (SN12C): > 100 µM (inactive) | GI50 (SNB-19): > 100 µM (inactive) | GI50 (SNB-75): > 100 µM (inactive) | GI50 (SR): 22.4 µM (inactive) | GI50 (SW-620): > 100 µM (inactive) | GI50 (T47D): > 100 µM (inactive) | GI50 (TK-10): > 100 µM (inactive) | GI50 (U-251): > 100 µM (inactive) | GI50 (UACC-257): > 100 µM (inactive) | GI50 (UACC-62): > 100 µM (inactive) | GI50 (UO-31): > 100 µM (inactive)

O=C1O/C(=C\c2ccc(O)cc2)C(c2ccc(O)c(Cl)c2)=C1Br
GI50 (786-0): 13 µM (inactive) | GI50 (A498): 16.4 µM (inactive) | GI50 (ACHN): 13.2 µM (inactive) | GI50 (BT-549): 6.35 µM (inactive) | GI50 (CAKI-1): 15.4 µM (inactive) | GI50 (CCRF-CEM): 5.94 µM (inactive) | GI50 (COLO 205): 19.3 µM (inactive) | GI50 (DU-145): 12.9 µM (inactive) | GI50 (EKVX): 14.1 µM (inactive) | GI50 (HCC 2998): 11.3 µM (inactive) | GI50 (HCT-116): 11.5 µM (inactive) | GI50 (HCT-15): 12.9 µM | GI50 (HL-60): 13.9 µM (inactive) | GI50 (HOP-62): 14.2 µM (inactive) | GI50 (HOP-92): 12.9 µM (inactive) | GI50 (HT-29): 16.4 µM (inactive) | GI50 (Hs-578T): 11.6 µM (inactive) | GI50 (IGROV-1): 12 µM (inactive) | GI50 (K562): 2.25 µM (inactive) | GI50 (KM12): 12.4 µM (inactive) | GI50 (LOX IMVI): 42 µM (inactive) | GI50 (M14): 13.6 µM (inactive) | GI50 (MCF7): 16.7 µM (inactive) | GI50 (MDA-MB-231): 21.8 µM (inactive) | GI50 (MDA-MB-435): 15.7 µM (inactive) | GI50 (MDA-N): 8.57 µM (inactive) | GI50 (MOLT-4): 11.7 µM (inactive) | GI50 (Malme-3M): 15.3 µM (inactive) | GI50 (NCI-H23): 16.1 µM (inactive) | GI50 (NCI-H460): 12.8 µM (inactive) | GI50 (NCI-H522): 6.76 µM (inactive) | GI50 (NCI/ADR-RES): 11.1 µM (inactive) | GI50 (OVCAR-3): 7 µM (inactive) | GI50 (OVCAR-4): 11.4 µM (inactive) | GI50 (OVCAR-5): 18.2 µM (inactive) | GI50 (OVCAR-8): 17.6 µM (inactive) | GI50 (PC-3): 6.47 µM (inactive) | GI50 (RPMI-8226): 10.6 µM (inactive) | GI50 (RXF 393): 18.6 µM (inactive) | GI50 (SF-268): 13.7 µM (inactive) | GI50 (SF-295): 14.5 µM (inactive) | GI50 (SF-539): 12 µM (inactive) | GI50 (SK-MEL-28): 13.4 µM (inactive) | GI50 (SK-MEL-2): 14 µM (inactive) | GI50 (SK-MEL-5): 12.7 µM (inactive) | GI50 (SK-OV-3): 14 µM (inactive) | GI50 (SN12C): 15.6 µM (inactive) | GI50 (SNB-19): 15.7 µM (inactive) | GI50 (SR): 3.94 µM (inactive) | GI50 (SW-620): 15.9 µM (inactive) | GI50 (T47D): 17.7 µM (inactive) | GI50 (TK-10): 18.9 µM (inactive) | GI50 (U-251): 18 µM (inactive) | GI50 (UACC-257): 13.9 µM (inactive) | GI50 (UACC-62): 13.7 µM (inactive) | GI50 (UO-31): 14.6 µM (inactive)
